Data as given in US20090099218A1, “SYNTHESIS OF NOVEL TUBULIN POLYMERIZATION INHIBITORS: BENZOYLPHENYLUREA (BPU) SULFUR ANALOGS” (priority 2007, published 2009).

Tests used:
[1] = test system: pancreas cancer xenografts; experiment: In vivo growth inhibition of patient-derived pancreas cancer xenografts; parameters: species or system athymic nude mice
Method: Six-week-old female athymic nude mice (Harlan) were used. The research protocol was approved by the Johns Hopkins University Animal Care and Use Committee, and animals were maintained in accordance to guidelines of the American Association of Laboratory Animal Care. Surgical non-diagnostic specimens from patients who had undergone surgery at the Johns Hopkins Hospital were implanted s.c. in one to two mice for each patient, with two small pieces per mouse (F1 generation). Tumors were grown to 1.5 cm^3 and then harvested, divided into small ˜3×3×3 mm pieces, and transplanted to another five mice, with two tumors per mouse (F2 generation). After a second growth passage, tumors were excised and propagated to cohorts of ≧20 mice. These groups constituted the F3, or treatment cohort. Tumors from this third mouse-to-mouse passage were allowed to grow to ˜200 mm3, at which time mice were randomized into three treatment groups, with five to six mice (10 evaluable tumors) in each group: control (vehicle), 6n (50 mg/kg i.p. twice per week), and 7d (50 mg/kg i.p. twice per week). Docetaxel treatment was given to selected groups at a dose of 30 mg/kg i.p. once a week for 2 weeks. Mice were monitored daily for signs of toxicity and were weighed thrice per week. Tumor size was evaluated twice per week by caliper measurements using the following formula: tumor volume=[length×width^2]/2. Relative tumor growth inhibition was calculated by relative tumor growth of treated mice divided by relative tumor growth of control mice from the onset of therapy (T/C).
To assess the treatment effect, a hierarchical linear regression model was used with random intercepts and fixed slopes. Based on the results of exploratory plots, the assumption of fixed effects for slopes seemed reasonable. This model allowed for mouse effects to be nested within patient effects so that the hierarchical structure is fully accounted for. Specifically, the following linear regression model was fitted: log(γiJt)=a1ijtimeijt+b2jtimeijt×trtij+βtime^2ijt+eijt where j indexes patient, i indexes mouse, and t indexes time; yijt is the percentage change in tumor volume (compared with day 0) in mouse i, which is a xenograft for patient j at time t; and trtij is treatment (1=treated, 0=control) received by mouse i, which is a xenograft for patient j. […] An intercept and main effect of treatment were not included in the model that makes two assumptions: (a) at time 0, the change from baseline is 0 (which is empirically true), and (b) at baseline, the treated and untreated curves intersect. The model was fit using Win-Bugs software that estimates models using a Markov chain Monte Carlo estimation procedure. A burn-in of 10,000 iterations was done, and then the chain was run for an additional 20,000 iterations, of which every 10th iteration was saved for inference. Several chains were run with different starting values to ensure convergence. No convergence issues arose. The fitted model was used to make inferences with respect to the treatment effect and to create fitted regression lines (rescaled on the Y-axis for clearer interpretation). Point estimates of variables of interest (e.g., expected difference in tumor volume between treated and control at 28 days) and 95% credible intervals were based on the mean of posterior distributions and the 2.5th and 97.5th quantiles of the posterior distribution, respectively. The comparisons between means and proportions obtained from the biological studies were done using Student's t-test and χ^2 method, respectively. ANOVA was used when three or more variables were compared.
Tumors from nine cases of pancreatic cancer were used to establish xenografts in nude mice, and the animals were treated with either vehicle, 6n, or 7d (FIG. 36A). The level of efficacy varied both between drugs and within cases treated with each drug. FIG. 37 provides an integrated summary of all data points obtained in the studies. […]

[2] = test system: Panc1005; experiment: MTT growth inhibition, pancreatic cell line Panc1005; type: cell-based; conditions: MTT assay, 96 h treatment, average of three independent experiments
Method: (§1) Eight of these analogs 6d, 6h, 6n, 6g, 7b, 7d, 8g, and 8h were tested for their cytotoxicity in seven pancreatic cell lines ASPC1, Panc1, Panc203, Panc430, Pane 1005, MiaPaca2, and HS766T using MTT assay. Cells were trypsinized, seeded at 5×10^3 cells/well in 96-well plate and allowed to grow for 24 hours before the treatment with exponential increasing concentrations of drugs in the presence of 10% FBS. After a 96-hours period of treatment, 20 μl of MTT solution (5 mg/ml in PBS) were added to each well, and the plates were then incubated for 3 hours at 37° C. Medium was then replaced with 100 μl of DMSO per well. Plates were shaken and the optical density was measured at 570 nm using a multiwell plate reader (Bio-Rad, Model 550, Bio-Rad Inc., Hercules, Calif.). Each experiment was performed in triplicate for each drug concentration and was carried out independently at least 3 times. The IC50 value was defined as the concentration needed for a 50% reduction in the absorbance calculated based on the survival curves. Response to drug treatment was assessed by standardizing treatment groups to untreated controls. Compounds activity was compared with compound 1.
(§2) Table 2 (Growth Inhibition of Pancreatic Cancer Cell Lines by BPU and BPTU Analogues (IC50) a) compares the cytotoxicity of a series of new derivatives against a panel of seven pancreatic cancer cell lines, as determined by MTT assay. See, Mosmann, T., J. Immunol. Methods 65:55-63 (1983).

[3] = test system: ASPC1; experiment: MTT growth inhibition, pancreatic cell line ASPC1; type: cell-based; conditions: MTT assay, 96 h treatment, average of three independent experiments
Method: as §1, §2

[4] = test system: Miapaca2; experiment: MTT growth inhibition, pancreatic cell line Miapaca2; type: cell-based; conditions: MTT assay, 96 h treatment, average of three independent experiments
Method: as §1, §2

[5] = test system: HS766; experiment: MTT growth inhibition, pancreatic cell line HS766; type: cell-based; conditions: MTT assay, 96 h treatment, average of three independent experiments
Method: as §1, §2

[6] = test system: seven pancreatic cell lines; experiment: MTT cytotoxicity, panel of seven pancreatic cancer cell lines; type: cell-based; conditions: Pancreatic cancer cell, all seven pancreatic cell lines
Method: as §1, §2

[7] = test system: Panc430; experiment: MTT growth inhibition, pancreatic cell line Panc430; type: cell-based; conditions: MTT assay, 96 h treatment; average of three independent experiments
Method: as §1, §2

[8] = test system: Panc1; experiment: MTT growth inhibition, pancreatic cell line Panc1; type: cell-based; conditions: MTT assay, 96 h treatment, average of three independent experiments
Method: as §1, §2

[9] = test system: Panc203; experiment: MTT growth inhibition, pancreatic cell line Panc203; type: cell-based; conditions: MTT assay, 96 h treatment, average of three independent experiments
Method: as §1, §2

[10] = test system: LAPC-4; experiment: MTT growth inhibition, prostate cancer cell line LAPC-4; type: cell-based, human; conditions: MTT assay, average of three independent experiments
Method: (§3) This MTT assay was carried using human prostate cancer cell lines CWR22R, LAPC-4 and LnCap using Promega cell titer 96 nonradioactive cell proliferation kits. Cells were trypsinized and centrifuged at 1000 rpm for 5 minutes and the supernatant was aspirated. Cells were resuspended with HBSS to a concentration of 10^6/ml. Cell suspension was diluted in serum containing medium to plate 2000 cells/well/0.2 ml. Cell suspension was transferred to sterile solution basin. Cells were plated using multichannel pipette set at 200 μl and incubated overnight for attachment. One plate was prepared for day 0 MTT assay as follows: 100 μl of media was removed from each well using multichannel pipette and 15 μl of MTT reagent was added. Plates were incubated at 37° C. for 4 hrs. […] of STOP solution was added to each well and incubated at room temperature for 1 hour. Absorbance was measured at 570 and 650 nm on plate reader. All the media from the remaining plates were carefully removed and the cells were treated with the media containing drug. MTT assays were done on days 0, 3, 5 and 7. In the preliminary screening […] BPU sulfur analogs 6l, 6h, 6n, 7d and 8h were screened and their activity was compared with compound 1.
(§4) Compounds with significant inhibitory activity in pancreatic cancer cells were further evaluated against prostate cancer cell lines in the MTT assay, (Mosmann, T., J. Immunol. Methods 65:55-63 (1983)) and the results were compared to those for compound 1 (Table 3).

[11] = test system: CWR22R; experiment: MTT growth inhibition, prostate cancer cell line CWR22R; type: cell-based, human; conditions: MTT assay, average of three independent experiments
[12] = test system: LnCaP; experiment: MTT growth inhibition, prostate cancer cell line LnCaP; type: cell-based, human; conditions: MTT assay, average of three independent experiments
Method: as §3, §4

[13] = test system: tubulin; experiment: Inhibition of tubulin polymerization; type: biochemical; conditions: Tubulin was at 10 μM; read-out: tubulin IC50 ± SD (inhibition of tubulin polymerization)
Method: Briefly, tubulin polymerization was followed turbidimetrically at 350 nm in Beckman model DU7400 and DU7500 recording spectrophotometers equipped with electronic temperature controllers. […] Samples were pre-incubated for 15 min at 30° C. and chilled on ice. GTP (final concentration, 0.4 mmol/L) was added to each reaction mixture, and these were placed in cuvettes held at 0° C. Baselines were established, the temperature was raised to 30° C.

[14] = test system: MCF-7 cells; experiment: Apoptosis of MCF-7 cells; type: cell-based; conditions: 48 hours

SMILES | IC50 ([2]; Homo sapiens, Panc1005) [µM] | IC50 ([3]; Homo sapiens, ASPC1) [µM] | IC50 ([4]; Homo sapiens, MIA PaCa-2) [µM] | IC50 ([5]; Homo sapiens, Hs 766) [µM] | IC50 [7] [µM] | IC50 ([8]; Homo sapiens, PANC-1) [µM] | IC50 ([9]; Homo sapiens, Panc203) [µM] | IC50 ([10]; Homo sapiens, LAPC4) [µM] | IC50 ([11]; Homo sapiens, 22Rv1) [µM] | IC50 ([12]; Homo sapiens, LNCaP) [µM] | other results
CC(=O)O[C@@]12CO[C@@H]1C[C@H](O)[C@@]1(C)C(=O)[C@H](O)C3=C(C)[C@@H](OC(=O)[C@H](O)[C@@H](NC(=O)OC(C)(C)C)c4ccccc4)C[C@@](O)([C@@H](OC(=O)c4ccccc4)[C@H]21)C3(C)C [Docetaxel, docetaxel, reference compound] | – | – | – | – | – | – | – | – | – | – | efficacy in case 194 ([1]; case with the greatest expression of MAPT): inactive; efficacy in case 185 ([1]; docetaxel 30 mg/kg i.p. once a week for 2 weeks): lower efficacy than 6n; efficacy in case 215 ([1]; low MAPT-expressing case, docetaxel 30 mg/kg i.p. once a week for 2 weeks): particularly efficacious
O=[N+]([O-])c1ccccc1OC=NOC=Nc1ccc([S+]([O-])c2ncc(Br)cn2)cc1 (stereo not drawn) [Compound 8g] | 5.5 | 2.5 | 8 | 6.5 | 5.5 | 6.5 | 5.5 | – | – | – | IC50 [6]: 2.5 to 8 µM
Brc1cnc(Sc2ccc(N=CON=COc3ccccc3)cc2)nc1 [Compound 6g] | > 10 | > 10 | 5 | 5.5 | 2 | > 10 | 7.5 | – | – | – | –
Brc1cnc(Sc2ccc(N=CSN=COc3ccccc3)cc2)nc1 [Compound 6h] | > 10 | 10 | 10 | 8.5 | 7.5 | 9.5 | > 10 | 6 | > 10 | > 10 | –
O=C(NC(=O)c1ccccc1[N+](=O)[O-])Nc1ccc(S(=O)(=O)c2ncc(Br)cn2)cc1 [Compound 8h, 1-[4-(5-Bromopyrimidine-2-sulfonyl)phenyl]-3-(2-nitrobenzoyl)-urea] | > 10 | > 10 | 6.1 | > 10 | > 10 | > 10 | > 10 | 4 | > 10 | 0.5 | –
Nc1ccccc1C(=O)NC(=O)Nc1ccc(Oc2nccc(Br)n2)cc1 [Compound 7c] | – | – | – | – | > 10 | – | – | – | – | – | IC50 [2]: > 10 µM; IC50 [3]: 5.2 µM; IC50 [4]: 0.92 µM; IC50 [13]: 36 ± 0.7 µM; IC50 [10]: 0.75 µM; IC50 [5]: 0.27 µM; IC50 [11]: 2 µM; IC50 [12]: 0.75 µM; IC50 [8]: 3.5 µM; IC50 [9]: > 10 µM
Cc1cc(NC(=O)NC(=O)c2ccccc2N(C)C)ccc1Oc1ncc(Br)cn1 [Compound 1, reference compound] | – | – | – | – | 0.8 | – | – | – | – | – | IC50 [2]: 5 µM; IC50 [3]: 0.85 µM; IC50 [4]: 0.85 µM; IC50 [10]: 0.25 µM; IC50 [5]: 1 µM; IC50 [11]: 1 µM; rate of apoptosis ([14]; 10 nM): 16.1%; rate of apoptosis ([14]; 30 nM): 19.5%; rate of apoptosis ([14]; 100 nM): 27.7%; IC50 [12]: 0.5 µM; IC50 [8]: 0.7 µM; IC50 [9]: 0.95 µM
O=[N+]([O-])c1ccccc1OC=NOC=Nc1ccc(Sc2ncccn2)cc1 [Compound 6l] | – | – | – | – | – | – | – | 0.6 | 5 | 0.5 | –
Nc1ccccc1OC=NOC=Nc1ccc(Sc2ncccn2)cc1 [Compound 7b] | > 10 | 6 | 7 | 8 | 6.5 | 7.5 | 5.5 | – | – | – | –
